Measured values from patent US20250296939A1, “BENZOTHIOPHENE COMPOUND” (Kyoto Pharmaceutical Industries, Ltd., priority 2022, published 2025).

Experiments:
[1] = molecular target: GST-fused human Keap1 (amino acid residues: 325-642) protein (Homo sapiens (Human), UniProt Q14145); experiment: FP assay (in vitro): inhibition of binding between Nrf2 and Keap1 by fluorescence polarization; conditions: 20 nM GST-fused human Keap1, 10 nM FITC-labeled Nrf2 peptide, 2 hr at room temperature
Method: Experimental Example 1: FP Assay (In Vitro)
The inhibitory activity of test compounds on the binding between Nrf2 and Keap1 was determined by fluorescence polarization. A solution of 50 mM Tris-HCl pH.8.0 (NACALAI, REF: 06938-15), and 5 mM DTT (SIGMA-ALDRICH, REF: 646563-10X.5 mL) was used as a buffer solution. 8 μL of a buffer solution containing 40 nM GST-fused human Keap1 (amino acid residues: 325-642) protein (Protein tech, REF: Ag0779) was taken in a black 384-well plate (final concentration 20 nM), and 4 μL of the test compound solution prepared to each concentration in buffer solution was added thereto. A well containing a portion of the buffer solution without Keap1 was placed as a negative control. A well with no compound was used as a positive control. 40 nM of FITC-labeled Nrf2 peptide (FITC-X-LQLDEETGEFLPIQ (X=ε-Acp), Peptide Institute Inc.) was added thereto (10 nM final concentration). The wells were incubated at room temperature for 2 hr, and then fluorescence polarization was measured with a plate reader SPECTRAMAX Paradigm (Molecular devices) at excitation wavelength of 485 nm and fluorescence wavelength of 535 nm. The fluorescence polarization of the negative control was set to 100% inhibition and that of the positive control to 0% inhibition, and the inhibitory rate upon addition of the test compound was calculated using the following formula.

[2] = system: NQO1 activity in Hepa1c1c7 cells; experiment: NAD(P)H: quinone oxidoreductase-1 (NQO1) enzyme induction assay (in vitro); assay type: cell-based, mouse; conditions: about 48 hr, ratio from the base without the compound; for fold induction at 0.4 µM: Mus musculus, Hepa-1c1c7, NQO1 activity upon addition of 400 nM of test compound
Method: Experimental Example 2: NAD(P)H: Quinone Oxidoreductase-1 (NQO1) Enzyme Induction Assay (In Vitro)
The NQO1 assay was performed based on a previous report (Methods in Enzymology 2004; 382: 243-258). Hepa1c1c7 cells (mouse hepatocyte cell line, ATCC, cat. no. CRL-2026) were cultured in D-MEM medium containing 10% FBS and 1% penicillin/streptomycin (5% CO2, 37° C.), and seeded into 96-well plates (Corning REF. 353072) at 1×10^4 cells/well. A portion of the wells were prepared with medium only for background measurement without seeding cells. The next day, 400 nM of the test compound (0.004% of the final concentration in DMSO) dissolved in DMSO was added thereto, and the wells were incubated for about 48 hr. A well without adding the test compound was prepared for base activity assay in part.
Cell lysate (solution containing 0.8% digitonin, 2 mM EDTA), reaction solution (solution containing 25 mM Tris-HCl, 0.07% albumin, 0.01% Tween-20, 2 U/mL glucose-6-phosphate dehydrogenase, 5 μM flavin adenine dinucleotide, 1 μM glucose-6-phosphate, 30 μM nicotinamide adenine dinucleotide phosphate, 0.03% 3-(4,5-dimethyl-2-thiazolyl)-2,5-diphenyltetrazolium bromide (MTT), and 50 μM menadione), stop solution (solution containing 0.3 mM dicoumarol and 5 mM potassium dihydrogen phosphate, pH 7.4) were prepared. After the medium was removed, 50 μL of the cell lysate was added and incubated at 37° C. for 10 minutes, followed by shaking at room temperature for 10 minutes. 200 μL of reaction solution was added thereto, and allowed to stand for 5 minutes at room temperature. 50 μL of the stop solution was added thereto, and absorbance was measured at 610 nm on a SpectraMax PLUS384 (Molecular devices) or POWERSCAN HT (DS Pharma Biomedical). The test results were analyzed in Excel, and the NQO1 activity upon addition of 400 nM of test compound was calculated as a ratio from the base without the compound.
The results of each test compound in this test are shown in the following Table 2 (A: 5<NQO1 activity ratio, B: 3<NQO1 activity ratio 5, C: 1.5<NQO1 activity ratio 3).

Sequence of GST-fused human Keap1 (amino acid residues: 325-642) protein (Q14145 325-624 limits assumed): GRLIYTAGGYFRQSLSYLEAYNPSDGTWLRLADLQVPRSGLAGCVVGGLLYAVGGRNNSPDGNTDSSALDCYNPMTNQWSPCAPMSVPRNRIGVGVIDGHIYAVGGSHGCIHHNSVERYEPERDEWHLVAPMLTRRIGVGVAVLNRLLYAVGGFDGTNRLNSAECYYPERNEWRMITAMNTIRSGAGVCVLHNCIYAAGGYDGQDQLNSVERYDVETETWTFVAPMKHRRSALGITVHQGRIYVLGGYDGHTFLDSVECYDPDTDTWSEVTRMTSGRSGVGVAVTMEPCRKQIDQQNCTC

Structure (SMILES) | IC50 [1] | fold induction at 0.4 µM [2] | activity ratio ([2]; NQO1 activity upon addition of 400 nM of test compound)
CC[C@@H]1CN(Cc2cc([C@@H](CC(=O)O)c3ccc4c(nnn4CC(F)(F)F)c3C)cc3ccsc23)Cc2nc(O)ccc2O1 (single isomer, unassigned) [Example 27] | 10 to 30 nM | > 5 | 
CC[C@@H]1CN(Cc2cc([C@@H](CC(=O)O)c3ccc4c(nnn4CC(F)(F)F)c3C)cc3ccsc23)Cc2nc(O)ccc2O1 (single isomer, unassigned) [Example 28] | 10 to 30 nM |  | 
CC[C@@H]1CN(Cc2cc([C@@H](CC(=O)O)c3ccn4c(C)nnc4c3C)cc3ccsc23)Cc2nc(O)ccc2O1 (single isomer, unassigned) [Example 52, (3R*)-3-(3,8-Dimethyl[1,2,4]triazolo[4,3-a]pyridin-7-yl)-3-(7-{[(2R)-2-ethyl-7-hydroxy-2,3-dihydropyrido[2,3-f][1,4]oxazepin-4(5H)-yl]methyl}-1-benzothiophen-5-yl)propanoic acid] | 30 to 300 nM | 3 to 5 | 
CC[C@@H]1CN(Cc2cc([C@@H](CC(=O)O)c3ccn4c(C)nnc4c3C)cc3ccsc23)Cc2nc(O)ccc2O1 (single isomer, unassigned) [Example 53, (3S*)-3-(3,8-Dimethyl[1,2,4]triazolo[4,3-a]pyridin-7-yl)-3-(7-{[(2R)-2-ethyl-7-hydroxy-2,3-dihydropyrido[2,3-f][1,4]oxazepin-4(5H)-yl]methyl}-1-benzothiophen-5-yl)propanoic acid] | 10 to 30 nM |  | B (B: 3<NQO1 activity ratio 5)
Cc1c(C(CC(=O)O)c2cc(CN3Cc4nc(O)ccc4OC4(CC4)[C@H]3C)c3sccc3c2)ccc2c1nnn2C (single isomer, unassigned) [Example 58, (3R*)-3-(1,4-Dimethyl-1H-benzotriazol-5-yl)-3-(7-{[(3′R)-7′-hydroxy-3′-methyl-3′H-spiro[cyclopropane-1,2′-pyrido[2,3-f][1,4]oxazepin]-4′ (5′H)-yl]methyl}-1-benzothiophen-5-yl)propanoic acid] | 300 to 3000 nM | 1.5 to 3 | 
Cc1c(C(CC(=O)O)c2cc(CN3Cc4nc(O)ccc4OC4(CC4)[C@H]3C)c3sccc3c2)ccc2c1nnn2C (single isomer, unassigned) [Example 59, (3S*)-3-(1,4-Dimethyl-1H-benzotriazol-5-yl)-3-(7-{[(3′R)-7′-hydroxy-3′-methyl-3′H-spiro[cyclopropane-1,2′-pyrido[2,3-f][1,4]oxazepin]-4′ (5′H)-yl]methyl}-1-benzothiophen-5-yl)propanoic acid] | 300 to 3000 nM |  | 
Cc1c(C(CC(=O)O)c2cc(CN3Cc4nc(O)ccc4OC4(CC4)[C@@H]3C)c3sccc3c2)ccc2c1nnn2C (single isomer, unassigned) [Example 60, (3R*)-3-(1,4-Dimethyl-1H-benzotriazol-5-yl)-3-(7-{[(3′S)-7′-hydroxy-3′-methyl-3′H-spiro[cyclopropane-1,2′-pyrido[2,3-f][1,4]oxazepin]-4′(5′H)-yl]methyl}-1-benzothiophen-5-yl)propanoic acid] | 30 to 300 nM | > 5 | 
Cc1c(C(CC(=O)O)c2cc(CN3Cc4nc(O)ccc4OC4(CC4)[C@@H]3C)c3sccc3c2)ccc2c1nnn2C (single isomer, unassigned) [Example 61, (3S*)-3-(1,4-Dimethyl-1H-benzotriazol-5-yl)-3-(7-{[(3′S)-7′-hydroxy-3′-methyl-3′H-spiro[cyclopropane-1,2′-pyrido[2,3-f][1,4]oxazepin]-4′ (5′H)-yl]methyl}-1-benzothiophen-5-yl)propanoic acid] | 30 to 300 nM |  | 
CC[C@@H]1CN(Cc2cc(C(CC(=O)O)c3ccc4c(nnn4C)c3C)cc3ccsc23)Cc2ncc(O)cc2O1 (single isomer, unassigned) [Example 65, (3R*)-3-(1,4-Dimethyl-1H-benzotriazol-5-yl)-3-(7-{[(2R)-2-ethyl-8-hydroxy-2,3-dihydropyrido[2,3-f][1,4]oxazepin-4(5H)-yl]methyl}-1-benzothiophen-5-yl)propanoic acid] | 30 to 300 nM | > 5 | 
CC[C@@H]1CN(Cc2cc(C(CC(=O)O)c3ccc4c(nnn4C)c3C)cc3ccsc23)Cc2ncc(O)cc2O1 (single isomer, unassigned) [Example 66, (3S*)-3-(1,4-Dimethyl-1H-benzotriazol-5-yl)-3-(7-{[(2R)-2-ethyl-8-hydroxy-2,3-dihydropyrido[2,3-f][1,4]oxazepin-4(5H)-yl]methyl}-1-benzothiophen-5-yl)propanoic acid] | 30 to 300 nM |  | 
Cc1c([C@H](CC(=O)O)c2cc(CN3Cc4nc(O)ccc4CC(C4CC4)C3)c3sccc3c2)ccc2c1nnn2C (single isomer, unassigned) [Example 88, (3R)-3-(7-{[(6S*)-6-Cyclopropyl-2-hydroxy-5,6,7,9-tetrahydro-8H-pyrido[2,3-c]azepin-8-yl]methyl}-1-benzothiophen-5-yl)-3-(1,4-dimethyl-1H-benzotriazol-5-yl)propanoic acid] | 30 to 300 nM | > 5 | 
Cc1c([C@H](CC(=O)O)c2cc(CN3Cc4nc(O)ccc4CC(C4CC4)C3)c3sccc3c2)ccc2c1nnn2C (single isomer, unassigned) [Example 89, (3R)-3-(7-{[(6R*)-6-Cyclopropyl-2-hydroxy-5,6,7,9-tetrahydro-8H-pyrido[2,3-c]azepin-8-yl]methyl}-1-benzothiophen-5-yl)-3-(1,4-dimethyl-1H-benzotriazol-5-yl)propanoic acid] | 30 to 300 nM |  | 
Cc1c([C@H](CC(=O)O)c2cc(CN3Cc4nc(O)ccc4CC(C4CC4)C3)c3sccc3c2)cnc2c1nnn2C (single isomer, unassigned) [Example 90, (3R)-3-(7-{[(6R*)-6-Cyclopropyl-2-hydroxy-5,6,7,9-tetrahydro-8H-pyrido[2,3-c]azepin-8-yl]methyl}-1-benzothiophen-5-yl)-3-(3,7-dimethyl-3H-[1,2,3]triazolo[4,5-b]pyridin-6-yl)propanoic acid] | 30 to 300 nM | > 5 | 
Cc1c([C@H](CC(=O)O)c2cc(CN3Cc4nc(O)ccc4CC(C4CC4)C3)c3sccc3c2)cnc2c1nnn2C (single isomer, unassigned) [Example 91, (3R)-3-(7-{[(6S*)-6-Cyclopropyl-2-hydroxy-5,6,7,9-tetrahydro-8H-pyrido[2,3-c]azepin-8-yl]methyl}-1-benzothiophen-5-yl)-3-(3,7-dimethyl-3H-[1,2,3]triazolo[4,5-b]pyridin-6-yl)propanoic acid] | 30 to 300 nM |  | 
CC[C@@H]1CN(Cc2cc([C@H](CC(=O)O)c3ccc4c(nnn4C)c3C)cc3ccsc23)Cc2nc(O)ccc2O1 [Example 1, (3S)-3-(1,4-Dimethyl-1H-benzotriazol-5-yl)-3-(7-{[(2R)-2-ethyl-7-hydroxy-2,3-dihydropyrido[2,3-f][1,4]oxazepin-4(5H)-yl]methyl}-1-benzothiophen-5-yl)propanoic acid] | 10 to 30 nM | > 5 | 
CC[C@@H]1CN(Cc2cc([C@H](c3ccc4c(nnn4C)c3C)C(C)(C)C(=O)O)cc3ccsc23)Cc2nc(O)ccc2O1 [Example 12, (3R)-3-(1,4-Dimethyl-1H-benzotriazol-5-yl)-3-(7-{[(2R)-2-ethyl-7-hydroxy-2,3-dihydropyrido[2,3-f][1,4]oxazepin-4(5H)-yl]methyl}-1-benzothiophen-5-yl)-2,2-dimethylpropanoic acid] | 300 to 3000 nM |  | 
